From patent US4791113A, “Mitomycin derivatives as antileukemia agents” (Kyowa Hakko Kogyo Kabushiki Kaisha, priority 1986, dated 1988)
≈ marks a conversion by molar mass, not a printed value. Like-named read-outs stand apart in the source and are kept apart here.

Tests used:
Hela S3 cultured cells = assay: Effects upon Hela S3 cultured cells; type: cell-based; settings: Homo sapiens
Description: Table 3 indicates the effects of typical Compounds (I) against Hela S3 culture cells. In this table, IC50 denotes the concentration of the test compound capable of reducing the number of cells to 50% the number of untreated cells.
Cultured cells of Hela S3 were added to a MEM medium containing 10% (V/V) of bovine fetal serum and […] of glutamine to obtain a cell suspension of 3×10^4 cells/ml. The cell suspension was poured into each well (1 ml/well) of a 24 well-multiplate for culturing at 37° C. in an incubator containing carbon dioxide (5%) and air (95%). After 24 hours, samples were dissolved or suspended in PBS, ethanol or dimethylsulfoxide and added to the medium at different concentrations, followed by culturing at 37° C. for 72 hours in the same incubator. An aspirator was used to collect the medium from each well. The surface of each medium was washed by adding PBS (1 ml) gently, and then PBS was sucked out. PBS containing trypsin (0.05%) and EDTA (0.02%) was poured into each well. After pipetting, the number of cells in each suspension was counted by the use of a microcell counter (commercial product of Toa Iyo Denshi K.K., Japan). By reference to a curve showing the concentration vs. the number of cells, the IC50 (concentration of sample capable of reducing the number of cells to 50% of the number of control untreated cells) was measured.

in vivo [1] = settings: mouse, ip, single abdominal administration, ddy mice, 14 days, Behrens-Korber's method
Description: (§1) In this table, C.I. denotes chemotherapeutic index, calculated as C.I.=(LD50)/(ED50), wherein LD50 denotes the value of acute toxicity, and ED50 denotes the dose of a sample which is capable of reducing the volume of Sarcoma 180 solid tumour to 50% of the corresponding volume of the solid tumour of untreated group.
(§2) The test compound was abdominally administered once to ddy mice, each group consisting of 5 animals.

Sarcoma 180 solid tumour = type: in vivo, ddy mouse; settings: C.I.=(LD50)/(ED50), ED50 = dose at T/C=0.5, i.v. (tail vein), 7 days
Description: as §1, §2
(§3) 5×10^6 cells of Sarcoma 180 solid tumour were abdominally implanted into a ddy mouse. 7 days after this, the cells were collected from the ascites fluid. The cells were washed once with physiological saline under sterile conditions and suspended in physiological saline to obtain a cell suspension containing 5×10^7 cells/ml of which 0.1 ml was implanted into a ddy male mouse (body weight 20±2 g) under the skin of the right armpit. The test compound was dissolved in physiological saline or the same solution containing Tween 80. 24 hours after implantation of the tumour cells, 0.1-0.2 ml of the solution containing the test compound was administered to the tail vein of each animal in the test group consisting of 5 animals. 7 days after the implantation, the major axis (a) and minor axis (b) of the tumour were measured to calculate the volume of the tumour as "a"×"b^2 "/2. The antitumour effect was indicated by T/C which is the ratio of the tumour volume in the test animals to the corresponding volume of the control (untreated) animals.
(§4) T/C ratios and the dose were respectively plotted on the ordinate using an arithmetic scale and on the abscissa using a logarithmic scale, the relationship between the dosage and the T/C ratio being converted to a straight line by the least squares method. From the straight tropic line thus-obtained, the dosage corresponding to a T/C=0.5 viz. ED50 was determined.

in vivo [2] = assay: in vivo; design: species or system mice (ddy strain); settings: mouse, ip, ratio of dose reducing peripheral leucocytes to 4000 (per mm^3; i.p., 4 days) to ED50 (Sarcoma 180), read-out: (WBC4000)/(ED50)
Description: as §1, §3, §4
Sarcoma 180 solid tumour cells (5×10^6) were subcutaneously implanted under the skin of the right armpit of each mouse (body weight 20±2 g) of a group consisting of 5 male mice (ddy strain). 24 hours after this, a test compound was intraperitoneally administered to each animal. 4 days later, blood (0.02 ml) was collected from the suborbital plexus vein of each tumour-carrying animal. The collected sample of blood was dispersed in 9.98 ml of Cellkit Seven solution. One drop of saponin solution was added to the sample to dissolve erythrocytes and then a microcell counter was used to measure the number of leucocytes. On graph paper, the number of leucocytes was plotted on the ordinate using an arithmetic scale, and the dosage was plotted on the abscissa using a logarithmic scale to show the relationship of the dosage to the number of peripheral leucocytes, from which the value of WBC4000 viz. a value capable of giving 4000 peripheral leucocytes per mm^3 (about half of the corresponding value in normal mice) was obtained.

| Compound | IC50 (Hela S3 cultured cells; HeLa S3, 72 h) [µg/mL] | LD50 at 336 h (in vivo [1]) [mg/kg] | C.I. (chemotherapeutic index) (Sarcoma 180 solid tumour) | selectivity ratio (in vivo [2]) | IC50 (Hela S3 cultured cells; concentration reducing number of Hela S3 cells to 50% of untreated, 72 hours at 37° C., read-out: IC50) [µg/mL] |
| --- | --- | --- | --- | --- | --- |
| CO[C@@]12[C@H](COC(N)=O)c3c(O)c(N=O)c(C)c(O)c3N1C[C@@H]1N[C@@H]12 [Example 1, [1aS-(1aα,8β,8aα,8bα)]-8-{[(aminocarbonyl)oxy]methyl}-4,7-dihydroxy-1,1a,2,8,8a,8b-hexahydro-8a-methoxy-5-methyl-6-nitroso-azirino[2',3':3,4]pyrrolo[1,2-a]indole] | 1.14 (≈ 3.24 µM) | 53 | 2.0 | 0.7 | – |
| CO[C@@]12[C@H](CO)c3c(O)c(N=O)c(C)c(O)c3N1C[C@@H]1N[C@@H]12 [Example 4, [1aS-(1aα, 8β, 8aα, 8bα)]-4,7-dihydroxy-1,1a,2,8,8a,8b-hexahydro-8-hydroxymethyl-8a-methoxy-5-methyl-6-nitroso-azirino [2',3':3,4]pyrrolo[1,2-a]indole] | – | 100 | 2.8 | > 1.4 | – |
| COc1c(C)c(N=O)c(O)c2c1N1C[C@@H]3N[C@@H]3[C@]1(OC)[C@@H]2COC(N)=O [Example 6] | 0.005 (≈ 0.0137 µM) | 75 | 5.6 | 2.7 | – |
| COc1c(N=O)c(C)c(OC)c2c1[C@@H](COC(N)=O)[C@@]1(OC)[C@H]3N[C@H]3CN21 [Example 8, [1aS-(1aα, 8β, 8aα, 8bα)]-8-{[(aminocarbonyl)oxy]methyl}-1,1a,2,8,8a,8b-hexahydro-5-methyl-6-nitroso-4,7,8a-trimethoxy-azirino [2',3':3,4]pyrrolo[1,2-a]indole] | 0.2 (≈ 0.529 µM) | 100 | 2.1 | 1.1 | – |
| COc1c(C)c(N=O)c(O)c2c1N1C[C@H]3[C@H](N3C)[C@]1(O)[C@H]2COC(N)=O (some centres unmarked) [Example 10] | 0.004 (≈ 0.011 µM) | > 100 | > 0.56 | > 0.56 | – |
| CO[C@@]12[C@H](COC(N)=O)c3c(O)c(N=O)c(C)c(OC(C)=O)c3N1C[C@H]1[C@@H]2N1C(C)=O [Example 11, [1aS-(1aα, 8β, 8aα, 8bα)]-1-acetyl-4-acetyloxy-8-{[(aminocarbonyl)oxy]methyl}-1,1a,2,8,8a,8b-hexahydro-7-hydroxy-8a-methoxy-5-methyl-6-nitroso-azirino[2',3':3,4]pyrrolo[1,2-a]indole] | – | 38 | 2.0 | 0.9 | 0.02 (≈ 0.046 µM) |
| CO[C@@]12[C@H](COC(N)=O)c3c(O)c(N=O)c(C)c(OCC(C)C)c3N1C[C@@H]1N[C@@H]12 [Example 13, [1aS-(1aα, 8β, 8aα, 8bα)]-8-{[(aminocarbonyl)oxy]methyl}-1,1a,2,8,8a,8b-hexahydro-7-hydroxy-4-isobutyloxy-8a-methoxy-5-methyl-6-nitroso-azirino[2',3':3,4]pyrrolo[1,2-a]indole] | – | > 100 | > 0.74 | > 0.74 | – |
| CO[C@@]12[C@H](COC(N)=O)c3c(O)c(N=O)c(C)c(OS(=O)(=O)c4ccc(C)cc4)c3N1C[C@@H]1N[C@@H]12 [Example 15, [1aS-(1aα,8β,8aα,8bα)]-8-{[(aminocarbonyl)oxy]methyl}-1,1a,2,8,8a,8b-hexahydro-7-hydroxy-8a-methoxy-5-methyl-6-nitroso-4-[(p-toluenesuIfonyl)oxy]azirino[2',3':3,4]pyrrolo[1,2-a]indole] | 0.027 (≈ 0.0535 µM) | 56 | 2.6 | 3.9 | – |
| CO[C@@]12[C@H](COC(N)=O)c3c(O)c(N=NC(=O)c4ccccc4)c(C)c(O)c3N1C[C@H]1[C@@H]2N1C (stereo partly drawn) [Example 21, [1aS-(1aα,8β,8aα,8bα)]-8-{[(aminocarbonyl)oxy]methyl}-6-[(benzoyl)azo]-4,7-dihydroxy-1,5-dimethyl-1,1a,2,8,8a,8b-hexahydro-8a-methoxy-azirino[2',3':3,4]pyrrolo[1,2-a]indole] | 0.75 (≈ 1.6 µM) | > 100 | > 1.0 | 0.62 | – |
| CO[C@@]12[C@H](COC(N)=O)c3c(O)c(N=NC4=NCCN4)c(C)c(O)c3N1C[C@@H]1N[C@@H]12 [Example 23, [1aS-(1aα,8β, 8aα,8bα)]-8-{[(aminocarbonyl)oxy]methyl}-4,7-dihydroxy-1,1a,2,8,8a,8b-hexahydro-6[(2"- imidazolinyl)azo]-8a-methoxy-5-methyl-azirino[2',3':3,4]pyrrolo[1,2-a]indol] | 0.162 (≈ 0.388 µM) | > 100 | > 0.6 | 0.5 | – |
| CO[C@@]12[C@H](COC(N)=O)c3c(O)c(N=NC(=S)SC)c(C)c(O)c3N1C[C@@H]1N[C@@H]12 [Example 31] | – | 50 | 2.5 | 1.1 | – |
